Several values for one entry are separate records, joined by “and”; a condition that tells them apart may be missing. Equal entries are not always repeated. Entries after “also recorded” stand apart in the source; their conditions may differ. Structures can show the parent of a compound that is named as a salt. Where two headings read alike, the source gives them in different places.
Columns and labels:
[1] = tested on: formalin-induced nociception; assay: Formalin-induced flinching (early and late/tonic phase), intrapaw injection; format: in vivo, rat; conditions: for Formalin-Induced Flinching (Late Phase) % Maximal Efficacy / Formalin-Induced Flinching (Late Phase) ED50: intrapaw; for % Antagonism of Late Phase Flinching: 10 minutes prior to formalin, mean ± SEM; for A50, antinociception in the second phase of flinching: i.paw injection
human δ receptor = human δ receptor (Homo sapiens, UniProt P41143); assay: Opiate receptor binding, δ
Chain of human δ receptor (P41143 whole entry): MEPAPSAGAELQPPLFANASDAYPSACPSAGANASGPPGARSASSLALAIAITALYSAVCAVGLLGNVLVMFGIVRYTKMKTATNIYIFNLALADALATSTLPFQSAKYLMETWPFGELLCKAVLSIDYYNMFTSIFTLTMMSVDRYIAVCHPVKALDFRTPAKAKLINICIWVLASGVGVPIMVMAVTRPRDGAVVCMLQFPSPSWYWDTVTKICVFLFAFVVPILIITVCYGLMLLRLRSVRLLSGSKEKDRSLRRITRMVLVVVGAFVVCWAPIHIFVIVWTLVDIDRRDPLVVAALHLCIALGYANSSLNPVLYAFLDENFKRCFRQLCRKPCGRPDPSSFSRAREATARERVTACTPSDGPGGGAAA

human κ receptor = human κ receptor (Homo sapiens, UniProt P41145); assay: biochemical; format: binding
Chain of human κ receptor (P41145 whole entry): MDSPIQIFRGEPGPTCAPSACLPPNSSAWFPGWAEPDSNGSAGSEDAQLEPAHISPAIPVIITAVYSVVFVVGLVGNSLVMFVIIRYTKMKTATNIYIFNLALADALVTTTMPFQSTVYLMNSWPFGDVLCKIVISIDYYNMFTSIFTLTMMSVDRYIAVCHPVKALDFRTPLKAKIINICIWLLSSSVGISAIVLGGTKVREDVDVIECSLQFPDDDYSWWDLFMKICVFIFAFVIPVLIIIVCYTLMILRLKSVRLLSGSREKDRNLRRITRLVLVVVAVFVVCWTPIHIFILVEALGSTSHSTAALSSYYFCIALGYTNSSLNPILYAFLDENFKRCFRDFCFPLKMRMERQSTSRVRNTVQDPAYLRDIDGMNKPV

human μ opiate receptors = biological target: T1, human μ opiate receptors (Homo sapiens, UniProt P35372); assay: biochemical; format: binding
T1 construct: expressed in transfected cells; host or cells: CHO cells
T1 sequence (P35372 whole entry): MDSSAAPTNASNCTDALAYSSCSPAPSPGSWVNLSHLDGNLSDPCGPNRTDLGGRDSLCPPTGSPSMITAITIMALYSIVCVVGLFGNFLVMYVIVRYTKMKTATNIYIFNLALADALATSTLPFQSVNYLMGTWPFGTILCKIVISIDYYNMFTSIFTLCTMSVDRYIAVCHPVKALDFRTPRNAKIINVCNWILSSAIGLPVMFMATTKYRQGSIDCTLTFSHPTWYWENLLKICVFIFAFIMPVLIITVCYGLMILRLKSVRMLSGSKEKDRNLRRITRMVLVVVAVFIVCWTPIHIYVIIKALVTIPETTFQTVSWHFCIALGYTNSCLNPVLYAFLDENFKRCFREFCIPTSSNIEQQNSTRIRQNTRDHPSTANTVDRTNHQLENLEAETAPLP

acute pain models = conditions: given systemically; tail clip and hot plate tail withdrawal tests (Stahl et al., Shriver et al.); cited from earlier work
catalepsy = assay: Catalepsy: time to dismount from a 4 cm high bar after IM injection; conditions: for Time to Dismount from Bar (sec) Before Drug: before drug (baseline); for Time to Dismount from Bar (sec) Before Drug / Time to Dismount from Bar (sec) After Drug Treatment (15 min): individual rats and x ± SE; for catalepsy: unanesthetized rats, IM morphine 3 mg, loperamide 0.5 mg
[2] = tested on: acetic acid-induced writhing; conditions: mice, intraparenterally (Takasuna et al. 1994); cited from earlier work
[3] = tested on: carrageenan or yeast inflammatory stimulus; assay: Separate tests using carrageenan or yeast as the inflammatory stimulus; format: in vivo
[4] = tested on: yeast-injected left hind paw; assay: Randall-Selitto assay, yeast-induced inflammation, paw pressure threshold; format: in vivo, rat; conditions: four hours after yeast, n=10
Excerpt: Air pressure from an air line is admitted through a needle valve to a syringe into a pressure gauge which is connected by a T-tube. The syringe is mounted with a plunger downward, to which is connected a short bullet-shaped wooden peg. The pressure is applied through the wooden tip to the plantar surface of the rat's foot at a specified rate of mm Hg per second. The end point is said to have been reached when the rat starts struggling.
Typically, rats, such as albino rats (120-170 g) of the Charles River Sprague-Dawley strain, or other laboratory strain are used. Hyperalgesia [inflammation] is produced by the injection of 0.1 ml of a 20% suspension of Brewer's yeast into the plantar surface of the rat's hind foot. Thresholds can be determined using a modified apparatus described in Winter and Flataker [(1965) J. Pharm. Exp. Ther. 148:373]. The pain threshold is measured as the pressure in mm Hg required to induce the desired response [a sharp audible squeak and/or struggle] when pressure is applied to the foot. Air pressure from an air line [or other source, such as a vice] is admitted through a needle valve to a 20 ml glass syringe and to a pressure gauge. Pressure is applied to the foot of the rat at a selected rate. The agent compound to be tested is administered typically 2 hours after the yeast injection and threshold response is determined. […] Analgesic activity was determined in terms of the percentage of inhibition of response:
Inhibition (%)=Threshold of the treated group−Threshold of the control group/Threshold of the control group×100
A Randall-Selitto assay [see, Randall et al. (1957) Arch. Int. Pharmacodyn.
Each rat was injected with 100 μl of a 20% yeast solution into the plantar surface of the left hind paw. […] Control rats were treated with 10% DMSO alone [n=20]. The pain thresholds of the inflamed and non-inflamed paws were measured by application of a pressure stimulus to the paw and the paw pressure threshold in gram [g] was recorded.

For “4-(4-chlorophenyl)-4-hydroxy-N,N-dimethyl-α,α-diphenyl-1-piperidinebutanamide methyl p-toluenesulfonate [Example 19]”, the “Formalin-Induced Flinching (Late Phase) % Maximal Efficacy” value [1] was 69% and the “Formalin-Induced Flinching (Late Phase) ED50” value [1] was 93 μg i. paw.
In the case of CCN(C)C(=O)C(CCN1CCC(O)(c2ccc(Cl)cc2)CC1)(c1ccccc1)c1ccccc1 [Compound 17A], the Ki (human δ receptor) is reported as 123 nM, the “Formalin-Induced Flinching (Late Phase) % Maximal Efficacy” value [1] is reported as 91% and the “Formalin-Induced Flinching (Late Phase) ED50” value [1] is reported as 4.8 μg i. paw. For the same molecule, the Ki (human κ receptor) was 1420 nM and the Ki (human μ opiate receptors) was 4 nM.
For O=C(N1CCCC1)C(CCN1CCC(O)(c2ccc(Cl)cc2)CC1)(c1ccccc1)c1ccccc1 [Compound 17B], the Ki (human δ receptor) was 68 nM, the “Formalin-Induced Flinching (Late Phase) % Maximal Efficacy” value [1] was 86% and the “Formalin-Induced Flinching (Late Phase) ED50” value [1] was 4.9 μg i. paw. For the same molecule, the Ki (human κ receptor) was 2230 nM and the Ki (human μ opiate receptors) was 2.2 nM.
In the case of O=C(N1CCCCC1)C(CCN1CCC(O)(c2ccccc2)CC1)(c1ccccc1)c1ccccc1 [Compound 17C], the Ki (human δ receptor) is reported as 15 nM, the “Formalin-Induced Flinching (Late Phase) % Maximal Efficacy” value [1] is reported as 87% and the “Formalin-Induced Flinching (Late Phase) ED50” value [1] is reported as 19 μg i. paw. It also gave a Ki (human κ receptor) of 4680 nM and a Ki (human μ opiate receptors) of 2.5 nM.
With CCOC(=O)C1(c2ccccc2)CCN(CCC(C#N)(c2ccccc2)c2ccccc2)CC1 [Deiphenoxylate] the Ki (human δ receptor; read-out: In Vitro Binding Affinities Human Opiate Receptors Ki, δ) was 315 nM, the “Formalin-Induced Flinching (Late Phase) % Maximal Efficacy” value [1] was 61% and the “Formalin-Induced Flinching (Late Phase) ED50” value [1] was 158 μg i. paw.
With N#CC(CCN1CCC(C(=O)O)(c2ccccc2)CC1)(c1ccccc1)c1ccccc1 [Difenoxin] the Ki (human δ receptor) was 56 nM, the “Formalin-Induced Flinching (Late Phase) % Maximal Efficacy” value [1] was 90% and the “Formalin-Induced Flinching (Late Phase) ED50” value [1] was 33 μg i. paw. The Ki (human μ opiate receptors) was 13 nM.
In the case of CNC(=O)C(CCN1CCC(O)(c2ccc(Cl)cc2)CC1)(c1ccccc1)c1ccccc1.Cl [Example 18, 4-(p-chlorophenyl)-4-hydroxy-N-methyl-α,α-diphenyl-1-piperidinebutyramide hydrochloride], the Ki (human δ receptor) is reported as 200 nM, the “Formalin-Induced Flinching (Late Phase) % Maximal Efficacy” value [1] is reported as 88% and the “Formalin-Induced Flinching (Late Phase) ED50” value [1] is reported as 3.2 μg i. paw. The Ki (human κ receptor) was > 1000 nM and the Ki (human μ opiate receptors) was 1.1 nM.
In the case of CN(C)C(=O)C(CCN1CCC(O)(c2ccc(Cl)cc2)CC1)(c1ccccc1)c1ccccc1 [Ioperamide], the “Formalin-Induced Flinching (Late Phase) % Maximal Efficacy” value [1] is reported as 97% and the “Formalin-Induced Flinching (Late Phase) ED50” value [1] is reported as 6 μg i. paw.
For CN(C)C(=O)C(CCN1CCC(O)(c2ccc(Cl)cc2)CC1)(c1ccccc1)c1ccccc1 [loperamide, 4-(p-chlorophenyl)-4-hydroxy-N-N-dimethyl-α,α-diphenyl-1-piperidinebutyramide hydrochloride], the “analgesic effects in acute pain models” value (acute pain models) is given as “little or no analgesic effects”, the “Time to Dismount from Bar (sec) Before Drug” value (catalepsy; IM loperamide (0.5 mg) group, hydrochloride) is given as 1 sec (4×) and 1 ± 0 sec and the “Time to Dismount from Bar (sec) After Drug Treatment (15 min)” value (catalepsy; IM loperamide (0.5 mg), hydrochloride) is given as 1 sec (2×) and 3 sec and 2 sec and 2 ± 1 sec. The catalepsy (catalepsy) was “no sign of catalepsy”, the acetic acid-induced writhing [2] was “suppression” and the antihyperalgesic activity [3] was “demonstrated antihyperalgesic activity”. For the same molecule, the “time prior to formalin injection at which administration was still efficacious” value ([1]; 100 μg i.paw) was “up to 6 hours”, the “antinociception when injected into the paw contralateral to formalin” value ([1]; 100 μg i.paw, contralateral) was “failed to produce antinociception” and the “antihyperalgesia when injected ipsilateral to formalin” value ([1]; 100 μg i.paw, ipsilateral) was “exhibited antihyperalgesia activity”. For the same molecule, the “late phase flinching behavior at the highest dose” value ([1]; 300 μg i.paw, hydrochloride) was “practically no flinching behavior; also recorded: Full efficacy”, the “% Antagonism of Late Phase Flinching” value ([1]; dose 1 μg into the paw) was 20 ± 7% and the “% Antagonism of Late Phase Flinching” value ([1]; dose 3 μg into the paw) was 53 ± 10%. The “% Antagonism of Late Phase Flinching” value ([1]; dose 10 μg into the paw) was 55 ± 15%, the “% Antagonism of Late Phase Flinching” value ([1]; dose 30 μg into the paw) was 74 ± 10% and the “% Antagonism of Late Phase Flinching” value ([1]; dose 100 μg into the paw) was 75 ± 11%. The “% Antagonism of Late Phase Flinching” value ([1]; dose 300 μg into the paw) was 97 ± 2%, the “effects on early phase flinching” value ([1]; doses of 0.3, 3, 30 and 300 μg) was “no significant effects” and the “A50, antinociception in the second phase of flinching” value [1] was 6 µg. The “Paw Pressure Threshold” value ([4]; dose 10 μg/100 μl/rat in 10% DMSO) was 66 ± 15 g, the “Paw Pressure Threshold” value ([4]; dose 50 μg/100 μl/rat in 10% DMSO) was 124 ± 29 g and the “Paw Pressure Threshold” value ([4]; dose 250 μg/100 μl/rat in 10% DMSO) was 153 ± 25 g.
In the case of CN1CC[C@]23c4c5ccc(O)c4O[C@H]2[C@@H](O)C=C[C@H]3[C@H]1C5.O=S(=O)(O)O [morphine, morphine sulfate], the “Time to Dismount from Bar (sec) Before Drug” value (catalepsy; IM morphine (3 mg) group, sulfate) is reported as 1 sec (3×) and 1 ± 1 sec and 2 sec, the “Time to Dismount from Bar (sec) After Drug Treatment (15 min)” value (catalepsy; IM morphine (3 mg), sulfate) is reported as 37 s and 31 s and 37 ± 11 s and 29 s and 52 s and the catalepsy (catalepsy) is reported as “significantly more cataleptic”. For the same molecule, the “A50, antinociception in the second phase of flinching” value [1] was 72 µg.
